In series [1] the target is DNA Seq6 (UGAAGGAAGGU as deoxyribonucleotides). The series is described as follows: FP binding assay, DNA Seq6. The method, then:
(§1) All synthetic DNA and RNA oligomers were purchased from Integrated DNA Technologies and reconstituted in nuclease-free water (Invitrogen #AM9932) at 1 mM. The concentration of the oligonucleotides at ˜0.1 mM was calibrated with the A260 value measured by a NanoDrop ND-1000 (Thermo, Waltham, MA, USA) and the predicted extinction coefficient (http://www.oligoevaluator.com) using Lamber-Beer's Law. The risdiplam analogues (1 mM in DMSO) were diluted in 2× assay buffer (40 mM HEPES, 200 mM NaCl for RNA; 40 mM HEPES, 200 mM NaCl, 1 mM MgCl2 for DNA) to make a 1 μM 2× working solution.
(§2) A 1:2 dilution series (8 points) of each oligonucleotide was prepared in 20-30 μL water to desired concentrations (i.e., 1-128 μM). 20-30 μL 2× working solution containing the 2× assay buffer and the small-molecule ligand was added to each oligonucleotide sample in 1:1 (v/v) and mixed by pipetting for 4 times. For fluorescence polarization measurement, 20 μL of the above 1× working solution was transferred into a 384-well, black, F-bottom microplates (Greiner Bio-One) in duplicates or triplicates. The plate was equilibrated at room temperature for 5 min before being read using a microplate reader (SYNERGY H1, BioTek; Excitation/Emission=360/460 nm) at 25° C. For compound SMN-C5, a competitive binding assay was employed to measure an apparent Kd. SMN-C5 was 1:2 serial diluted for 10 concentration points starting at 750 μM in DMSO. A mixture of SMN-C2 (0.5 μM) and DNA Seq6 (25 μM) in 1× assay buffer was prepared and incubated at room temperature for 10 minutes. 3 μL of SMN-C5 solution at each concentration was added to a 42 μL SMN-C2/DNA Seq6 mixture and incubated at room temperature for 10 minutes. The mixture was then transferred into a microplate (20 μL each well) in duplicates for fluorescence polarization readout. The experimental data were analyzed using Prism 8 software (Graphpad Software, San Diego, CA, USA).

The target of another series is RNA Seq10 UAAAGGAAGGU
As to the kind of experiment: FP binding assay, RNA Seq10. Particulars: Seq 10 UAAAGGAAGGU; 0.5 μM SMN-C2. The method, then:
as §1
(§3) A 1:2 dilution series (8 points) of each oligonucleotide was prepared in 20-30 μL water to desired concentrations (i.e., 1-128 μM). […] For fluorescence polarization measurement, 20 μL of the above 1× working solution was transferred into a 384-well, black, F-bottom microplates (Greiner Bio-One) in duplicates or triplicates. The plate was equilibrated at room temperature for 5 min before being read using a microplate reader (SYNERGY H1, BioTek; Excitation/Emission=360/460 nm) at 25° C. […] The mixture was then transferred into a microplate (20 μL each well) in duplicates for fluorescence polarization readout. The experimental data were analyzed using Prism 8 software (Graphpad Software, San Diego, CA, USA).

Another series addresses DNA Seq6. As to the kind of experiment: Isothermal titration calorimetry (ITC), DNA Seq6. Type of series: binding. The note with it: SMN-C2 250 μM into DNA Seq6 25 μM; MES buffer, 5% DMSO, 100 mM NaCl. The method, then:
Excess amount of SMN-C2 was eluted at retention volume ˜21 mL. The figures are the representation of three independent experiments.
Isothermal calorimetric titrations were carried out on a Malvern Analytical MicroCal PEAQ-ITC at 25° C. The DNA (see above for the calibration procedure) and the SMN-C2 water solutions containing the desired amount of the materials were freeze-dried overnight (Labconco FreeZone 4.5 Liter Benchtop Freeze Dry System) and then re-suspended in appropriate volume of buffer containing 5% DMSO, 100 mM NaCl and 30 mM MES buffer at pH 6.0 (e.g., 350 μL for DNA Seq6, 80 μL for SMN-C2). […] The analysis was performed using the instrument's MicroCal PEAQ-ITC Analysis Software (Malvern Analytical). The ITC data was fit using the One Set of Sites mode to calculate the dissociate constant (Kd), binding stoichiometry, and the changes in enthalpy and Gibbs free energy. In differential power (DP) trace, the baseline was subtracted for better visualization, which has no impact on calculations.
Background: ITC needs no label: the signal is the heat of the interaction.

Series [2] concerns the target DNA Seq10 (UAAAGGAAGGU as deoxyribonucleotides). As to the kind of experiment: FP binding assay, DNA Seq10. The note with it: Seq 10; 0.5 μM SMN-C2. The method, then: as §1, §3
The target in the next series is DNA S12 […]. As to the kind of experiment: FP binding assay, 18-nt DNA S12. How it is done:
as §1, §3

For the next series, the target named is DNA Seq11 TGGAGGAAGGT
The series is described as follows: FP binding assay, DNA Seq11. Particulars: Seq 11 TGGAGGAAGGT; 0.5 μM SMN-C2. The method, then: as §1, §3

For series [3], the target named is COVID RNA (SARS-CoV-2 RNA SL5 per FIG. 8). As to the kind of experiment: FP binding, Kd for COVID RNA. The note with it: Table 3.
Series [4] in a line: in vitro. Particulars: human.
The target in a further series is DNA S25 […]. The series is described as follows: FP binding assay, 18-nt DNA S25. How it is done:
as §1, §3

The target in series [5] is RNA Seq18: 1:1 annealed U1 snRNA binding sequence 5′-AUACΨΨACCU and 5′ splice site 5′-GGAGGUAAGUCU
As to the kind of experiment: FP binding assay, dsRNA Seq18 (binding site 1 sequence). The note with it: Seq 18, binding site 1 sequence (dsRNA); 0.5 μM SMN-C2. The method, then: as §1, §3

The next series addresses DNA S26 d(TGAAGGAAGG). As to the kind of experiment: FP binding assay, 10-nt DNA S26. How it is done: as §1, §3
A further series addresses DNA S5 […]. As to the kind of experiment: FP binding assay, 18-nt DNA S5. How it is done: as §1, §3
A further series addresses DNA S23 […]. As to the kind of experiment: FP binding assay, 18-nt DNA S23. How it is done:
as §1, §3

For the next series, the target named is DNA S4 […]. The series is described as follows: FP binding assay, 18-nt DNA S4. How it is done: as §1, §3
The target of another series is DNA S27 d([…]). The series is described as follows: FP binding assay, 10-nt DNA S27. How it is done:
as §1, §3

In another series the target is DNA S16 […]. As to the kind of experiment: FP binding assay, 18-nt DNA S16. How it is done:
as §1, §3

Another series concerns the target DNA S7 […]. As to the kind of experiment: FP binding assay, 18-nt DNA S7. The method, then:
as §1, §3

For another series, the target named is DNA Seq14 AGAAGGTAGGT
The series is described as follows: FP binding assay, DNA Seq14. Particulars: Seq 14 AGAAGGTAGGT; 0.5 μM SMN-C2. The method, then: as §1, §3

The target of a further series is DNA Seq17 TGAAGGAAGAT
As to the kind of experiment: FP binding assay, DNA Seq17. Particulars: Seq 17 TGAAGGAAGAT; 0.5 μM SMN-C2. The method, then:
as §1, §3

For the next series, the target named is DNA S21 […]. As to the kind of experiment: FP binding assay, 18-nt DNA S21. How it is done: as §1, §3
A further series addresses RNA Seq4 […]. As to the kind of experiment: FP binding assay, RNA Seq4. How it is done: as §1, §2
Series [6] is described as follows: in vitro. The note with it: human. The source holds these as a separate data set.
A further series concerns the target DNA S18 […]. As to the kind of experiment: FP binding assay, 18-nt DNA S18. How it is done:
as §1, §3

In general, Kd refers to the constant that tells how readily two partners part at equilibrium. As for `CCN1CCN(c2ccc3cc(-c4cn5cc(C)nc(C)c5n4)c(=O)oc3c2)C[C@@H]1C` [SMN-C2, (S)-3-(6,8-dimethylimidazo[1,2-a]pyrazin-2-yl)-7-(4-ethyl-3-methylpiperazin-1-yl)-2H-chromen-2-one], the Kd is 3.1 ± 0.7 µM in [1] (Seq 6, 0.5 μM SMN-C2, range = 95% CI, read-out: DNA Kd); above 100 µM on RNA Seq10 UAAAGGAAGGU; 4.8 µM at DNA Seq6; above 100 µM in [2]; 37.4 ± 6.7 µM on DNA S12 […]; 57.3 ± 20 µM on DNA Seq11 TGGAGGAAGGT. Besides, the dissociation constant Kd is 1.6 ± 0.4 µM in [3]; 48 ± 7.8 µM at DNA S25 […]; 60 ± 36 µM in [5]; 6.2 ± 1 µM on DNA S26 d(TGAAGGAAGG); 42.3 ± 4.2 µM on DNA S5 […]; above 50 µM at DNA S23 […]. The equilibrium dissociation constant (Kd) on DNA S4 […] was above 50 µM; on DNA S27 d([…]) it was 11.6 ± 1.7 µM; at DNA S16 […], 48.9 ± 12.2 µM; on DNA S7 […] it was 17.3 ± 1.7 µM; at DNA Seq14 AGAAGGTAGGT, above 100 µM; at DNA Seq17 TGAAGGAAGAT, 56.4 ± 10.4 µM. For the same compound, the Kd is above 50 µM at DNA S21 […], 21.7 ± 4.3 µM on RNA Seq4 […] and above 50 µM on DNA S18 […]. Moreover, in series [1] (Seq10-17 vs Seq6), the “decrease in binding affinity by any single-point mutation of the core sequence” value is on record as at least 5 fold. Moreover, the CC50 in “in vitro [4]” and in “in vitro [6]” was above 30 µM each time.

The values above are taken from patent US20250368651A1 (priority 2022, published 2025).
